The values below come from patent publication US9562031B1, “Phenethyldihydrobenzodioxolones and methods of use” (Sequoia Sciences, Inc., priority 2015, dated 2017).

“And” between values parts separate entries of the source, which are not always exact repeats. Equal values may be shown once. Read-outs that look alike come from different tables or passages of the source.

The test system of data set [1] is M14 (amelanotic melanoma) cells. The data set is described as follows: antiproliferation assay (72 h, CELLTITER 96), M14. The class given is cell-based, human. The note with it: Homo sapiens. An outline of the steps: (§1)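 Human M14 melanoma and NCI-H460 lung carcinoma cells in RPMI-1640/10% FBS, seeded at 5×10^2–5×10^4 cells/well and adhered overnight, then exposed to seven compound concentrations for 72 h at 37 °C. Viable cells read by CellTiter 96 AQueous (MTS); IC50 = concentration giving 50% of maximal growth inhibition.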

Data set [2] has as its system NCI-H460 (large cell lung carcinoma) cells. The data set is described as follows: antiproliferation assay (72 h, CELLTITER 96), NCI-H460. Format: cell-based, human. The note with it: Homo sapiens. Summed up:
as §1

A further data set relates to A498 cells. Briefly: NCI-60 panel antiproliferation, A498. Format: cell-based, human. The note with it: Homo sapiens, NCI 60-cell panel. On the procedure:
(§2) Bifidenone and Compound 37 were tested for antiproliferation activity against the NCI-60 panel of cancer cell lines. COMPARE analysis was then conducted to compare the activity “fingerprint” of bifidenone to those of known classes of compounds (Zhou, B.-N., Hoch, J. M., Johnson, R. K., Mattern, M. R., Eng, W.-K., Ma, J., Hecht, S. M., Newman, D. J., Kingston, D. G. I., 2000. Use of COMPARE Analysis to Discover New Natural Product Drugs: Isolation of Camptothecin and 9-Methoxycamptothecin from a New Source. Journal of Natural Products 63, 1273-1276.).

The test system of a further data set is A549 cells. The data set is described as follows: NCI-60 panel antiproliferation, A549. The class given is cell-based, human. As to conditions: Homo sapiens, NCI 60-cell panel. On the procedure: as §2
For a further data set, the system named is EKVX cells. The data set is described as follows: NCI-60 panel antiproliferation, EKVX. As to conditions: Homo sapiens, NCI 60-cell panel. The class given is cell-based, human. On the procedure: as §2
Data set [3] concerns HCT-15 cells. Briefly: NCI-60 panel antiproliferation, HCT-15. As to conditions: Homo sapiens, NCI 60-cell panel. The class given is cell-based, human. On the procedure: as §2
The next data set concerns HL-60 cells. The data set is described as follows: NCI-60 panel antiproliferation, HL-60. The class given is cell-based, human. As to conditions: Homo sapiens, NCI 60-cell panel. On the procedure:
as §2

The next data set relates to KM12 cells. The data set is described as follows: NCI-60 panel antiproliferation, KM12. The class given is cell-based, human. The note with it: Homo sapiens, NCI 60-cell panel. On the procedure:
as §2

A further data set relates to LOX IMVI cells. Briefly: NCI-60 panel antiproliferation, LOX IMVI. Format: cell-based, human. The note with it: Homo sapiens, NCI 60-cell panel. The method, then: as §2
The test system of a further data set is M14 cells. Briefly: NCI-60 panel antiproliferation, M14. The note with it: Homo sapiens, NCI 60-cell panel. The class given is cell-based, human. On the procedure:
as §2

For the next data set, the system named is MCF-7 cells. Briefly: NCI-60 panel antiproliferation, MCF-7. The class given is cell-based, human. As to conditions: Homo sapiens, MCF7, NCI 60-cell panel. The method, then: as §2
A further data set has as its system MOLT-4 cells. Briefly: NCI-60 panel antiproliferation, MOLT-4. The class given is cell-based, human. The note with it: Homo sapiens, NCI 60-cell panel. On the procedure: as §2
The subject of another data set is NCI-ADR/RES cells. The data set is described as follows: NCI-60 panel antiproliferation, NCI-ADR/RES. The class given is cell-based, human. As to conditions: Homo sapiens, NCI 60-cell panel. The method, then:
as §2

The subject of another data set is NCI-H23 cells. The data set is described as follows: NCI-60 panel antiproliferation, NCI-H23. The note with it: Homo sapiens, NCI 60-cell panel. The class given is cell-based, human. The method, then: as §2
The test system of the next data set is NCI-H226 cells. Briefly: NCI-60 panel antiproliferation, NCI-H226. The note with it: Homo sapiens, NCI 60-cell panel. The class given is cell-based, human. The method, then:
as §2

The subject of a further data set is NCI-H322M cells. Briefly: NCI-60 panel antiproliferation, NCI-H322M. Format: cell-based, human. The note with it: Homo sapiens, NCI 60-cell panel. On the procedure:
as §2

A further data set relates to OVCAR-5 cells. The data set is described as follows: NCI-60 panel antiproliferation, OVCAR-5. Format: cell-based, human. The note with it: Homo sapiens, NCI 60-cell panel. On the procedure: as §2
The test system of another data set is PC-3 cells. The data set is described as follows: NCI-60 panel antiproliferation, PC-3. Format: cell-based, human. As to conditions: Homo sapiens, NCI 60-cell panel. On the procedure: as §2
The subject of a further data set is SF-268 cells. The data set is described as follows: NCI-60 panel antiproliferation, SF-268. The class given is cell-based, human. As to conditions: Homo sapiens, NCI 60-cell panel. On the procedure:
as §2

A further data set relates to SF-295 cells. The data set is described as follows: NCI-60 panel antiproliferation, SF-295. The note with it: Homo sapiens, NCI 60-cell panel. Format: cell-based, human. The method, then: as §2
The subject of a further data set is SF-539 cells. Briefly: NCI-60 panel antiproliferation, SF-539. The note with it: Homo sapiens, NCI 60-cell panel. The class given is cell-based, human. The method, then: as §2
The next data set concerns SK-Mel-2 cells. The data set is described as follows: NCI-60 panel antiproliferation, SK-MEL-2. The class given is cell-based, human. The note with it: Homo sapiens, NCI 60-cell panel. The method, then: as §2
In another data set the test system is SK-OV-3 cells. Briefly: NCI-60 panel antiproliferation, SK-OV-3. The class given is cell-based, human. As to conditions: Homo sapiens, NCI 60-cell panel. The method, then:
as §2

The subject of another data set is SNB-19 cells. The data set is described as follows: NCI-60 panel antiproliferation, SNB-19. Format: cell-based, human. As to conditions: Homo sapiens, NCI 60-cell panel. The method, then: as §2
The test system of another data set is SNB-75 cells. Briefly: NCI-60 panel antiproliferation, SNB-75. Format: cell-based, human. The note with it: Homo sapiens, NCI 60-cell panel. The method, then: as §2
The test system of another data set is SR cells. Briefly: NCI-60 panel antiproliferation, SR. The class given is cell-based, human. As to conditions: Homo sapiens, NCI 60-cell panel. The method, then: as §2
The test system of a further data set is TK-10 cells. The data set is described as follows: NCI-60 panel antiproliferation, TK-10. Format: cell-based, human. As to conditions: Homo sapiens, NCI 60-cell panel. On the procedure:
as §2

Data set [4] relates to HCT-15 cells. The data set is described as follows: antiproliferation assay, paclitaxel-resistant HCT-15. As to conditions: Homo sapiens. The class given is cell-based. On the procedure:
For the antiproliferation assay, NCI-H460 (large cell lung carcinoma) or M14 (amelanotic melanoma) cells were grown in RPMI-1640 with 10% FBS supplemented with L-glutamine and HEPES. Cells were seeded into 96-well plates at 5×10^2 to 5×10^4 cells/well and allowed to adhere overnight; the medium was then removed. A stock solution of test compound in DMSO was diluted in medium to generate a series of working solutions. Aliquots (100 μl) of the working solutions were then added to the appropriate test wells to expose cells to the final concentrations of compound in a total volume of 100 μl. Seven different concentrations were tested, with 2-5 wells per concentration. Camptothecin was used as a positive control; wells containing vehicle without compound were used as negative controls. Plates were kept for 72 h in a 37° C., 5% CO2 incubator. After incubation, viable cells were detected with the CELLTITER 96 AQueous Non-Radioactive Cell Proliferation Assay (Promega), and IC50 values were determined using GraphPad Prism 5 software.
Compound 4 was tested for antiproliferation activity against several paclitaxel-resistant human cancer cell lines.

For data set [5], the system named is NCI-H460 (lung) xenograft tumors. The data set is described as follows: tumor growth inhibition, NCI-H460 murine xenograft model. The class given is in vivo, mice. On the procedure: Tumor growth inhibition of compound 4 was measured in several murine xenograft models, and the results of individual experiments are listed in Table 14. Tumors were initiated by subcutaneous injection of either tumor cells from cell culture or tumor fragments from continuous in vivo passage. When tumors reached volumes between approximately 100 and 200 mm^3, the mice were divided into vehicle and treatment groups. Compound or vehicle was administered by IP injection in a volume of 5-10 mL/kg.
Changes in tumor weight (delta weights) for each treated (T) and control (C) group are calculated for each day tumors are measured by subtracting the median tumor weight on the first day of treatment (staging day) from the median tumor weight on the specified observation day. These values are used to calculate a percent T/C as follows: % T/C=(delta T/delta C)×100. The optimal T/C is the minimal value obtained after the first treatment.

The mark [6] stands for this setting: IP 30 mg/kg, days 0,1,2,3,5,6,7,8,10,11,12,13.
The mark [7] stands for this setting: IP 60 mg/kg, days 0,1,2,5,6,7,10,11,12.

As a reminder, the IC50 is the concentration at which inhibition is half-maximal. With `C=CC[C@H]1C[C@]2([C@@H](C)Cc3ccc(OC)c(F)c3)OCOC2=CC1=O` [Compound 37, (6S,7aR)-6-allyl-7a-((S)-1-(3-fluoro-4-methoxyphenyl)propan-2-yl)-7,7a-dihydrobenzo[d][1,3]dioxol-5(6H)-one], the half-inhibitory concentration (IC50) in [1] (Table 4) was 0.008 µM; in data set [2] (NCI-H460, Table 4, read-out: NCI-H460 IC50), 0.085 µM; in the data set on A498 cells it was 0.058 µM; with A549 cells it was 0.055 µM; with EKVX cells it was 0.149 µM; in the data set on HCT-15 cells [3], 0.056 µM. Moreover, the IC50 came out at 0.036 µM with HL-60 cells; 0.055 µM with KM12 cells; 0.027 µM in the data set on LOX IMVI cells; 0.059 µM in the data set with M14 cells; 0.063 µM in the data set on MCF-7 cells; 0.097 µM in the data set on MOLT-4 cells. In addition, the half-maximal inhibitory concentration (IC50) in the data set with NCI-ADR/RES cells is 0.047 µM; in the data set on NCI-H23 cells it was 0.123 µM; in the data set on NCI-H226 cells it was 0.141 µM; in the data set with NCI-H322M cells, 0.125 µM; in the data set with OVCAR-5 cells it was 0.119 µM; with PC-3 cells it was 0.07 µM. Further, the IC50 in the data set with SF-268 cells turned out to be 0.623 µM; with SF-295 cells it was 0.048 µM; with SF-539 cells, 0.074 µM; in the data set on SK-Mel-2 cells it was 0.051 µM; in the data set on SK-OV-3 cells it was 0.039 µM; with SNB-19 cells, 0.073 µM. For the same molecule, the figures for the IC50 in the data set on SNB-75 cells, in the data set on SR cells and in the data set with TK-10 cells were 0.049 µM, 0.014 µM and 0.107 µM, respectively.
Take `C=CC[C@H]1C[C@]2([C@H](C)Cc3cc(O)c(OC)cc3F)OCOC2=CC1=O` (relative stereo) [Compound 4, 6-allyl-7a-(1-(2-fluoro-5-hydroxy-4-methoxyphenyl)propan-2-yl)-7,7a-dihydrobenzo[d][1,3]dioxol-5(6H)-one]: the IC50 in data set [1] (Table 3) was 0.011 µM; in [2] (NCI-H460, Table 3, read-out: NCI-H460 IC50) it was 0.015 µM; in data set [2] (NCI-H460, as quoted in the pharmacokinetics text, read-out: IC50 against NCI-H460 human lung cancer cells), 0.015 µM; with HCT-15 cells [4] it was below 0.005 µM. Moreover, the “Maximum Mean Body Weight Loss” value in data set [5] (setting [6]) was 7%; in data set [5] (IP 40 mg/kg, days 0,1,2,5,6,7,10,11,12 (two experiments)), 7%; in [5] (setting [7]), 9%. The “Optimal T/C” value in data set [5] (setting [6]) was 42%; in [5] (IP 40 mg/kg, days 0,1,2,5,6,7,10,11,12 (two experiments), 40 mg/kg) it was 29% and 35%; in data set [5] (setting [7]), 40%.
